Measured values reported in ChEMBL document CHEMBL5338828, “Structure-Activity Relationships of Bis-Intercalating Peptides and Their Application as Antibody-Drug Conjugate Payloads” (J Med Chem, 2023).
pIC50, pKd: −log10 of the molar value. The source made the active and inactive calls. No cut-off for these calls is given here. Where a SMILES comes first, the peptide text is derived from it. Bridges are numbered along the chain shown (N, C = ends). Roman numbers before positions name the chains, in order. [ ]: non-standard residue; d: D form. The star is where a group is joined. Quinaldoyl(3-OH) = O=C(c1nc2ccccc2cc1O)*; NMeV = CN[C@H](C(=O)O)C(C)C; Pip = O=C(O)[C@@H]1CCCCN1; dDap = NC[C@@H](N)C(=O)O

Assays:
[1] = Binding affinity to biotinylated hairpin DNA (unknown origin) assessed as binding constant by SPR analysis
EBC-1 = assay: Cytotoxicity against human EBC-1 cells assessed as inhibition of cell growth incubated for 5 days by CellTiter-Glo luminescence assay; assay type: functional, cell-based; conditions: EBC-1, 120 h
IGROV-1 = assay: Cytotoxicity against human IGROV-1 cells assessed as inhibition of cell growth incubated for 5 days by CellTiter-Glo luminescence assay; assay type: functional, cell-based; conditions: IGROV-1, 120 h
[2] = Retention time of the compound by HPLC analysis; assay type: physicochemical
[3] = Stability in mouse plasma at 1 uM measured upto 1440 min by UHPLC-MS/MS analysis; assay type: ADME, cell-free; conditions: 24 h
Clupeidae = assay: Binding affinity to Herring sperm DNA assessed as melting temperature by differential scanning calorimetric analysis
OVCAR-3 = assay: Cytotoxicity against human OVCAR-3 cells assessed as inhibition of cell growth incubated for 5 days by CellTiter-Glo luminescence assay; assay type: functional, cell-based; conditions: OVCAR-3, 120 h
[4] = Stability in mouse plasma assessed as half-life at 1 uM measured upto 1440 min by UHPLC-MS/MS analysis; assay type: ADME, cell-free
[5] = Binding affinity to biotinylated hairpin DNA (unknown origin) at 0.312 to 5 uM by SPR analysis; conditions: dose 0.312-5 µM
[6] = Stability in mouse plasma assessed as parent compound remaining measured after 24 hrs by LC-MS analysis; assay type: ADME, cell-free; conditions: read-out: Stability

Compound	pKd [1]	pIC50 (EBC-1)	pIC50 (IGROV-1)	Retention_time [2]	Stability [3]	Tm (Clupeidae)	pIC50 (OVCAR-3)	half-life at 1 µM [4]	Activity [5]	remaining at 24 h [6]
CC(C)[C@H]1C(=O)NC[C@@H](NC(=O)c2nc3ccccc3cc2O)C(=O)N2CCCC[C@H]2C(=O)NCC(=O)N(C)CC(=O)N(C)[C@@H](C(C)C)C(=O)NC[C@@H](NC(=O)c2nc3ccccc3cc2O)C(=O)N2CCCC[C@H]2C(=O)NCC(=O)N(C)CC(=O)N1C	5.48	7.34	7.41	17.1 min	Stable	88 °C	7.74	–	–	–
CCOC(=O)[C@H](CCc1ccccc1)N[C@@H](C)C(=O)N1CCC[C@H]1C(=O)O [ENALAPRIL]	–	–	–	–	–	–	–	2.83 h	–	–
CN1CC(=O)N2CCCC[C@H]2C(=O)NC[C@@H](NC(=O)c2nc3ccccc3cc2O)C(=O)N2CCCC[C@H]2C(=O)NCC(=O)N(C)CC(=O)N2CCCC[C@H]2C(=O)NC[C@@H](NC(=O)c2nc3ccccc3cc2O)C(=O)N2CCCC[C@H]2C(=O)NCC1=O	6.30	–	–	15.7 min	–	97 °C	–	–	–	–
CC(C)[C@H]1C(=O)NC[C@@H](NC(=O)c2nc3ccccc3cc2O)C(=O)N2CCCC[C@H]2C(=O)NCC(=O)N(C)CC(=O)N2CCCC[C@H]2C(=O)NC[C@@H](NC(=O)c2nc3ccccc3cc2O)C(=O)N2CCCC[C@H]2C(=O)NCC(=O)N(C)CC(=O)N1C	6.24	–	–	16.4 min	–	92 °C	–	–	–	–
CC(C)[C@H]1C(=O)NC[C@@H](NC(=O)c2nc3ccccc3cc2O)C(=O)N2CCCC[C@H]2C(=O)NCC(=O)N(C)CC(=O)N2CCC[C@H]2C(=O)NC[C@@H](NC(=O)c2nc3ccccc3cc2O)C(=O)N2CCCC[C@H]2C(=O)NCC(=O)N(C)CC(=O)N1C	5.96	–	–	15 min	–	88 °C	–	–	–	–
CC(C)[C@H]1COC[C@@H](NC(=O)c2nc3ccccc3cc2O)C(=O)N2CCCC[C@H]2C(=O)NCC(=O)N(C)CC(=O)N(C)[C@@H](C(C)C)C(=O)NC[C@@H](NC(=O)c2nc3ccccc3cc2O)C(=O)N2CCCC[C@H]2C(=O)NCC(=O)N(C)CC(=O)N1C	6.52	8.27	8.19	18.4 min	Stable	92 °C	8.54	–	–	–
CC(C)[C@H]1C(=O)NCC(=O)N(C)CC(=O)N2CCCC[C@H]2C(=O)NC[C@@H](NC(=O)c2nc3ccccc3cc2O)C(=O)N(C)[C@@H](C(C)C)C(=O)NCC(=O)N(C)CC(=O)N2CCCC[C@H]2C(=O)NC[C@@H](NC(=O)c2nc3ccccc3cc2O)C(=O)N1C	–	–	–	16.8 min	–	–	–	–	inactive	–
CC(C)[C@H]1C(=O)NC[C@@H](NC(=O)c2nc3ccccc3cc2O)C(=O)N2CCCC[C@H]2C(=O)NCC(=O)NCC(=O)N(C)[C@@H](C(C)C)C(=O)NC[C@@H](NC(=O)c2nc3ccccc3cc2O)C(=O)N2CCCC[C@H]2C(=O)NCC(=O)NCC(=O)N1C (I: {Quinaldoyl(3-OH)}-[dDap][Pip]GG[NMeV] / II: {Quinaldoyl(3-OH)}-[dDap][Pip]GG[NMeV]; amide I:1-II:C, I:C-II:1)	–	–	–	15.1 min	–	–	–	–	inactive	–
CC(C)[C@H]1C(=O)NC[C@@H](NC(=O)c2nc3ccccc3cc2O)C(=O)N2CCCC[C@H]2C(=O)NCC(=O)N(C)CC(=O)N(C)[C@@H](C2CCCCC2)C(=O)NC[C@@H](NC(=O)c2nc3ccccc3cc2O)C(=O)N2CCCC[C@H]2C(=O)NCC(=O)N(C)CC(=O)N1C	6.40	–	–	18.9 min	–	86 °C	–	–	–	–
CC(C)[C@H]1COC[C@@H](NC(=O)c2nc3ccccc3cc2O)C(=O)N2CCCC[C@H]2C(=O)NCC(=O)N(C)CC(=O)N(C)[C@@H](C(C)C)C(=O)OC[C@@H](NC(=O)c2nc3ccccc3cc2O)C(=O)N2CCCC[C@H]2C(=O)NCC(=O)N(C)CC(=O)N1C	6.52	–	–	20.2 min	–	96 °C	–	–	–	–
CC[C@H](C)[C@H]1C(=O)NC[C@@H](NC(=O)c2nc3ccccc3cc2O)C(=O)N2CCCC[C@H]2C(=O)NCC(=O)N(C)CC(=O)N(C)[C@@H](C(C)C)C(=O)NC[C@@H](NC(=O)c2nc3ccccc3cc2O)C(=O)N2CCCC[C@H]2C(=O)NCC(=O)N(C)CC(=O)N1C	6.70	–	–	18 min	–	89 °C	–	–	–	–
CN1CC(=O)N2CCCC[C@H]2COC[C@@H](NC(=O)c2nc3ccccc3cc2O)C(=O)N2CCCC[C@H]2C(=O)NCC(=O)N(C)CC(=O)N2CCCC[C@H]2C(=O)NC[C@@H](NC(=O)c2nc3ccccc3cc2O)C(=O)N2CCCC[C@H]2C(=O)NCC1=O	6.02	–	–	16.6 min	–	94 °C	–	–	–	–
CC[C@H](C)[C@H]1C(=O)NC[C@@H](NC(=O)c2nc3ccccc3cc2O)C(=O)N2CCCC[C@H]2C(=O)NCC(=O)N(C)CC(=O)N(C)[C@@H]([C@@H](C)CC)C(=O)NC[C@@H](NC(=O)c2nc3ccccc3cc2O)C(=O)N2CCCC[C@H]2C(=O)NCC(=O)N(C)CC(=O)N1C	6.40	–	–	18.8 min	–	91 °C	–	–	–	–
CC(C)[C@H]1C(=O)OC[C@@H](NC(=O)c2nc3ccccc3cc2O)C(=O)N2CCCC[C@H]2C(=O)NCC(=O)N(C)CC(=O)N(C)[C@@H](C(C)C)C(=O)OC[C@@H](NC(=O)c2nc3ccccc3cc2O)C(=O)N2CCCC[C@H]2C(=O)NCC(=O)N(C)CC(=O)N1C	6.44	8.85	8.80	21.6 min	–	102 °C	9.00	5.5 h	–	< 5%
CC(C)[C@H]1C(=O)NC[C@@H](NC(=O)c2nc3ccccc3cc2O)C(=O)N2CCCC[C@H]2C(=O)NCC(=O)N(C)CC(=O)N(C)[C@@H](C(C)C)C(=O)OC[C@@H](NC(=O)c2nc3ccccc3cc2O)C(=O)N2CCCC[C@H]2C(=O)NCC(=O)N(C)CC(=O)N1C	7.10	9.22	8.92	19.6 min	–	97 °C	9.22	12 h	–	–
